Values quoted from earlier work in PMC9688344, “[^225Ac]Ac-SibuDAB for Targeted Alpha Therapy of Prostate Cancer: Preclinical Evaluation and Comparison with [^225Ac]Ac-PSMA-617” (Cancers, 2022).
Like-named read-outs stand apart in the source and are kept apart here.

Tests used:
[1] = patients; cited from earlier work
[2] = system: PSMA-positive PC-3 PIP cells; details: 4 h incubation; ref Tschan et al., Eur J Nucl Med Mol Imaging 2022; cited from earlier work
[3] = cited from earlier work
PSMA = biological target: T1, PSMA (Homo sapiens, UniProt Q04609); details: ref Deberle & Benešová et al., Theranostics 2020; cited from earlier work
T1 construct: expressed in transfected cells; host or cells: PC-3 PIP prostate cancer cells (transduced to express PSMA), provided by Prof; Dr. Martin Pomper, Johns Hopkins University
T1 sequence (Q04609 whole entry): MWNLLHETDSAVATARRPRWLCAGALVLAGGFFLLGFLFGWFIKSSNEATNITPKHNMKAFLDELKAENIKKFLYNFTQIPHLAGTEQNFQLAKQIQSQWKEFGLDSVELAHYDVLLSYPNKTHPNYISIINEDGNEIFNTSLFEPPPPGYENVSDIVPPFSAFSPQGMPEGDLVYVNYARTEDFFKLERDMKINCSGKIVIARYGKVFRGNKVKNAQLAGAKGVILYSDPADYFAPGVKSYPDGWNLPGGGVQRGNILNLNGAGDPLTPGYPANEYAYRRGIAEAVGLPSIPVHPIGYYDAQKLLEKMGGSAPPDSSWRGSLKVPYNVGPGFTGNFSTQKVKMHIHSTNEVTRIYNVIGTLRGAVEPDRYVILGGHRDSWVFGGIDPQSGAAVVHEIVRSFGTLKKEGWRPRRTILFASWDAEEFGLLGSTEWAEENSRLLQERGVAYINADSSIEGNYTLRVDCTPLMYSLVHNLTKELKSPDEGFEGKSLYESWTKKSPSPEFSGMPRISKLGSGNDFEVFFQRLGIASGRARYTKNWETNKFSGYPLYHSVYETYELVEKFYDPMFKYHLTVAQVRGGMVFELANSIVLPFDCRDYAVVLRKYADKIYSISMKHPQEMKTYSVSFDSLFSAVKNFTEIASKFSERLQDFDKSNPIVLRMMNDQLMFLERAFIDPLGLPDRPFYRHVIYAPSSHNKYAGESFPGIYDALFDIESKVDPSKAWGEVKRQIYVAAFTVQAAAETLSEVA

[4] = system: PC3-PIP/flu tumor-bearing mice; details: ref Benešová et al., Mol Pharm 2018, cited from earlier work

## O=C([O-])CN1CCN(CC(=O)[O-])CCN(CC(=O)NCC2CCC(C(=O)NC(Cc3ccc4ccccc4c3)C(=O)NCCCCC(NC(=O)NC(CCC(=O)O)C(=O)O)C(=O)O)CC2)CCN(CC(=O)[O-])CC1.[177Lu+3] (stereo not drawn) [[^177Lu]Lu-PSMA-617]
[1]
  salivary gland uptake: 1.41 ± 0.53 Gy/GBq
[2]
  Cell uptake: 60 ± 5%
  Internalized fraction: 13 ± 2%
[3]
  logD value: −4.4 ± 0.2
PSMA
  Kd: 13 nM
[4]; 1 h p.i.
  Blood, accumulated activity: 0.50 ± 0.06 % IA/g
  Bone, accumulated activity: 0.21 ± 0.04 % IA/g
  Heart, accumulated activity: 0.29 ± 0.03 % IA/g
  Intestines, accumulated activity: 0.24 ± 0.01 % IA/g
  Kidneys, accumulated activity: 9.8 ± 1.4 % IA/g
  Liver, accumulated activity: 0.20 ± 0.04 % IA/g
  Lung, accumulated activity: 0.57 ± 0.07 % IA/g
  Muscle, accumulated activity: 0.25 ± 0.20 % IA/g
  PC-3 PIP tumor, accumulated activity: 44 ± 12 % IA/g
  PC-3 flu tumor, accumulated activity: 0.28 ± 0.04 % IA/g
  Salivary glands, accumulated activity: 0.42 ± 0.30 % IA/g
  Spleen, accumulated activity: 0.63 ± 0.27 % IA/g
  Stomach, accumulated activity: 0.18 ± 0.02 % IA/g
  Tumor-to-blood ratio: 88 ± 13
  Tumor-to-kidney ratio: 4.5 ± 0.7
  Tumor-to-liver ratio: 213 ± 17
[4]; 4 h p.i.
  Blood, accumulated activity: ≤ 0.10 % IA/g
  Bone, accumulated activity: ≤ 0.10 % IA/g
  Heart, accumulated activity: ≤ 0.10 % IA/g
  Intestines, accumulated activity: ≤ 0.10 % IA/g
  Kidneys, accumulated activity: 3.7 ± 1.1 % IA/g
  Liver, accumulated activity: ≤ 0.10 % IA/g
  Lung, accumulated activity: ≤ 0.10 % IA/g
  Muscle, accumulated activity: ≤ 0.10 % IA/g
  PC-3 PIP tumor, accumulated activity: 56 ± 8 % IA/g
  PC-3 flu tumor, accumulated activity: ≤ 0.10 % IA/g
  Salivary glands, accumulated activity: ≤ 0.10 % IA/g
  Spleen, accumulated activity: 0.15 ± 0.04 % IA/g
  Stomach, accumulated activity: ≤ 0.10 % IA/g
  Tumor-to-blood ratio: 2315 ± 108
  Tumor-to-kidney ratio: 16 ± 2
  Tumor-to-liver ratio: 598 ± 108
[4]; 24 h p.i.
  Blood, accumulated activity: ≤ 0.10 % IA/g
  Bone, accumulated activity: ≤ 0.10 % IA/g
  Heart, accumulated activity: ≤ 0.10 % IA/g
  Intestines, accumulated activity: ≤ 0.10 % IA/g
  Kidneys, accumulated activity: 0.76 ± 0.15 % IA/g
  Liver, accumulated activity: ≤ 0.10 % IA/g
  Lung, accumulated activity: ≤ 0.10 % IA/g
  Muscle, accumulated activity: ≤ 0.10 % IA/g
  PC-3 PIP tumor, accumulated activity: 37 ± 6 % IA/g
  PC-3 flu tumor, accumulated activity: ≤ 0.10 % IA/g
  Salivary glands, accumulated activity: ≤ 0.10 % IA/g
  Spleen, accumulated activity: ≤ 0.10 % IA/g
  Stomach, accumulated activity: ≤ 0.10 % IA/g
  Tumor-to-blood ratio: 2730 ± 195
  Tumor-to-kidney ratio: 50 ± 4
  Tumor-to-liver ratio: 528 ± 51
[4]; 48 h p.i.
  Blood, accumulated activity: ≤ 0.10 % IA/g
  Bone, accumulated activity: ≤ 0.10 % IA/g
  Heart, accumulated activity: ≤ 0.10 % IA/g
  Intestines, accumulated activity: ≤ 0.10 % IA/g
  Kidneys, accumulated activity: 0.35 ± 0.05 % IA/g
  Liver, accumulated activity: ≤ 0.10 % IA/g
  Lung, accumulated activity: ≤ 0.10 % IA/g
  Muscle, accumulated activity: ≤ 0.10 % IA/g
  PC-3 PIP tumor, accumulated activity: 28 ± 4 % IA/g
  PC-3 flu tumor, accumulated activity: ≤ 0.10 % IA/g
  Salivary glands, accumulated activity: ≤ 0.10 % IA/g
  Spleen, accumulated activity: ≤ 0.10 % IA/g
  Stomach, accumulated activity: ≤ 0.10 % IA/g
  Tumor-to-blood ratio: 3776 ± 585
  Tumor-to-kidney ratio: 81 ± 11
  Tumor-to-liver ratio: 710 ± 97
